Columns and labels:
[1] = test system: IgG response to murine hemi-surrogate CEA-TCB; test: ADA against murine hemi-surrogate CEA-TCB in hIgG1 Tg mice, ELISA (Example 8); assay type: in vivo, C57BL/6-Tg (hIgG1,k,l) mice; conditions: 40 mg/kg/day via food admix from one week before first immunization until day 28, vs vehicle
Description: (§1) 11-15-week-old mice C57BL/6-Tg (hIgG1,k,l) mixed gender (n=20) were purchased from Taconic (Denmark) and housed at the animal facilities in room with air-conditioned under a 12 hours light/dark cycle in macrolon boxes with enriched environment and free access to water and food. 7×10 μg of CEA-TCB (P1AE3536, huCEA binder CH1A1A/mouse CD3 binder 2C11) were injected at day 0, 4, 7, 11, 14, 18 and 21 subcutaneously in the right flank or the left flank alternatively. The dosage of (2S,4R)-4-[4-(1-methyl-1H-pyrazol-4-yl)-2-trifluoromethyl-benzenesulfonyl]-1-(1-trifluoromethyl-cyclopropanecarbonyl)-pyrrolidine-2-carboxylic acid (1-cyano-cyclopropyl)-amide consumption was 40 mg/kg/day. […]
(§2) Nunc Maxisorp flat-bottom 96 well ELISA plates were coated with 100 μl per well of huCEA IgG PGLALA (P1AD9477) or hu anti mouse CD3 (P1AE2779-001-01) respectively at 5 μg/mL in NaHCO3100 mM buffer overnight at +4° C. […] 100 μl of substrate P-nitrophenyl phosphate ready to use (Life Technologies, Cat no 002212) were added per well and after 10 min incubation at room temperature, the OD at 405 nm was read as an end-point measurement with a Versamax ELISA reader.

[2] = test system: CEA-specific IgG response; test: ADA against CEA-IL2v in hIgG1 Tg mice over time, ELISA (Example 4, 63 days); assay type: in vivo, C57BL/6-Tg (hIgG1,k,l) mice; conditions: 40 mg/kg/day via food admix, primary and memory response, samples to day 63, vs vehicle
Description: as §1, with “15-week-old” for “11-15-week-old”, “(hIgG1,k,l) and C57BL/6 wild type” for “(hIgG1,k,l)”, “gender” for “gender (n=20)”, “CEA-IL2v (Batch no GLI0144-01)” for “CEA-TCB (P1AE3536, huCEA binder CH1A1A/mouse CD3 binder 2C11)”, “21 for the primary response, and at day 49, 53, 56 and 60 for the memory response. The CEA-112v injections were done” for “21”
as §2, with “Humira” for “huCEA IgG PGLALA (P1AD9477)”, “CEA-PGLALA” for “hu anti mouse CD3 (P1AE2779-001-01)”

Compound: Cn1cc(-c2ccc(S(=O)(=O)[C@@H]3C[C@@H](C(=O)NC4(C#N)CC4)N(C(=O)C4(C(F)(F)F)CC4)C3)c(C(F)(F)F)c2)cn1 [cathepsin S inhibitor, (2S,4R)-4-[4-(1-methyl-1H-pyrazol-4-yl)-2-trifluoromethyl-benzenesulfonyl]-1-(1-trifluoromethyl-cyclopropanecarbonyl)-pyrrolidine-2-carboxylic acid (1-cyano-cyclopropyl)-amide]
- ADA specific to CD3 binder (2C11) of CEA-TCB [1]: significantly reduced ADA to CD3 binder
- CEA-specific ADA to CEA-TCB [1]: reduction of CEA-specific ADA was not significant
- ADA to CEA-IL2v (CEA-specific IgG) over time [2]: prevents ADA to CEA-IL2v in hIgG transgenic mice

Reference: patent US12419862B2, “Use of a cathepsin s inhibitor against the formation of anti-drug antibodies” (Hoffmann-La Roche Inc., priority 2018, dated 2025)
